Patent publication US8252768B2, “Designer therapy of pancreatic tumors” (University of Miami, priority 2006, dated 2012)
Like-named read-outs stand apart in the source and are kept apart here. Marks after values point to notes of the source that are not given here.

What was measured:
PC-3 cells [1] = experiment: Radiosensitization of cells in culture (Cobalt 60, clonogenic survival); assay type: cell-based, human
Procedure: (§1) Toxicity and Radiation Studies: The methods using clonogenic assays described by Perez and Greer (Int. J. Rad. Oncology: Biology, Physics 12, 1523-1527, 1986—incorporated herein by reference in its entirety) were followed.
(§2) Irradiation of Cells in Culture: 2×10^5 cells were plated in 25 cm^2 flasks and grown for 18 hr at 37° C. in a humidified 5% CO2 atmosphere. The medium was then removed and replaced with medium containing the appropriate drug concentrations and incubated for 72 hrs then removed and the cell monolayers were rinsed twice with PBS. The flasks were then filled with 50 ml of radiation medium (3 parts RPMI 1640 and 7 parts PBS plus antibiotics and glutamine). The cells were then irradiated using a Cobalt 60 irradiator. The cell monolayers were placed 35 cm away from the source and irradiated for appropriate times according to the dose rate. The dose rate was calculated, at this distance, using ionization chambers. Attenuation factors due to the polystyrene flask (0.9923) and the medium (H2O=0.8715) were considered in calculating the exposure period.
(§3) After irradiation the cell monolayers were washed again, replenished with growth media, and incubated for 1½ hours. The cell monolayers were then trypsinized and the cells serially diluted, appropriate dilutions were then plated in 60 mm dishes and incubated for 7-9 days at 37° C. and CO2. At the end of this period the cells were stained with crystal violet and the colony forming ability determined by considering 25 or more normal cells as a viable colony. The viabilities were determined and the appropriate survival curves derived. All conditions were done in duplicate using two flasks treated under identical conditions.

T24 cells = experiment: as above; assay type: cell-based, human
Procedure: as §1, §2, §3

uridine/cytidine kinase = experiment: Competition assay for substrates of uridine/cytidine kinase, crude extracts of T24 cells; assay type: biochemical, human
Procedure: 2 mM dithiothreitol (DTT) and 0.5 mM phenylmethylsulfanyl fluoride were added just before extraction. The tissue sample was homogenized in a Dounce glass homogenizer and then sonicated for 3 five-second pulses in a Branson Sonifier with a micro-tip at 25 KHz to disrupt the cells. During homogenization and sonication the extract was kept cold throughout the procedures. The tissue extract was then centrifuged at 14,000×g at 4° C. for 15 min., and the supernatant (the crude enzyme extract) was removed. The supernatant was sheared 20 times on ice utilizing a 1 cc syringe with a 27 G½ needle to reduce viscosity. […] 2 mM DTT and 340 μM H4U were added just before the assay. Finally, to the reaction mixture, 5 μl 200 mM creatine phosphate and creatine phosphokinase (0.5 unit/μl) was added to 150 μl of the section mixture. […] H2O bath for 1 minute before 20 μl of the crude enzyme extract was added to initiate the reaction. […] At 0, 30 and 60 minutes the reaction mixture, divided in separate tubes, was heated in a boiling water bath for 2 minutes to terminate the reaction. Denatured protein was then removed by centrifugation of the sample for 2 minutes at 14,000×g. The amount of nucleotide formed was determined by spotting 20 μl aliquots of the reaction mixture onto DE-81 2.2 cm Whatman filter discs. After air drying, the unphosphorylated substrate nucleoside was removed by washing twice for 10 min. in 20 mM ammonium formate and twice for 5 min. in deionized H2O with gentle stirring. A control, lacking the crude enzyme extract was included with each determination. The washed papers were dried under a heat lamp and then placed into individual scintillation vials, eluted for 30 min. in 1 ml of 0.1M HCl-0.1M KCL and then vortexed in 5 ml of scintillation fluid and counted. Enzyme activity was expressed as pmoles/min/mg protein.
When uridine was utilized as substrate, benzacyclouridine was added to prevent the catabolism of the substrate by uridine phosphorylase and tetrahydrouridine was omitted.

cytidine deaminase (CD) = target: T1, cytidine deaminase (CD) (Homo sapiens, UniProt P32320); experiment: Competition assay for substrates of cytidine deaminase, crude extracts of PC-3 cells; assay type: biochemical
T1 construct: Crude extracts of PC-3 cells in culture were prepared as described above; endogenous in cells; host or cells: PC-3 cells (crude extract supernatant)
Procedure: (§4) The crude enzyme extract (the supernatant of a 10 minute 14,000×g centrifugation) was then added. When cytidine was used as substrate, assays were conducted with benzacyclouridine to inhibit uridine phosphorylases. […] After 0, 15, and 30 minutes, the reaction was stopped and denatured protein removed as above for dC Kinase. […] Aliquots were then spotted on PE cellulose TLC sheets and the reactants separated with a solvent system composed of isopropanol:HCl:H2O (170:41:39). […] The nucleosides were visualized under U.V. light and the spots cut out and counted. […] Enzyme activity was expressed as nmole formed in 30 min/mg/protein.
Competition assays to determine Substrate Specificity: Crude extracts of PC-3 cells in culture were prepared as described above. Two concentrations of crude extract were utilized for the studies as determined from the analysis of protein.
The assays were run for 0, 15, and 30 minutes.

[2] = target: deoxycytidine kinase (dCK) (Homo sapiens, UniProt P27707); experiment: Competition assay for substrates of deoxycytidine kinase, crude extracts of PC-3 cells
PC-3 cells [3] = experiment: Cytotoxicity (clonogenic) assay, 72 h drug exposure; assay type: cell-based, human
Procedure: as §1
Cytotoxicity Assays: 5×10^5 cells were plated in 60 mm tissue culture dishes in 5 mls of the optimal growth media for the particular cell line in an humidified 95% air-5% CO2 atmosphere. The plates were incubated for 18-20 hours to allow for attachment and log-phase growth to begin. At the end of this period the growth medium was aspirated and replaced with […]. Four times (4×) concentrated solutions were prepared and then 1 ml was added to the plates; and growth media were then added to a total volume of […]. The plates were then incubated for 72 hours and the cells harvested by trypsinization. The cells were then serially diluted in growth medium replated into 60 mm dishes and incubated for 6 to 9 days depending on the cell line. After this incubation period, the media was aspirated and the colonies were washed twice with a PBS solution. The colonies were then stained with a 0.2% crystal violet-20% ethanol solution for 5 min. the stain was removed, the colonies were washed and air dried. A viable colony was one consisting of 25 or more normal appearing cells and was considered to have arisen from a single cell. The colonies were counted under a dissecting microscope. Two to three dilutions for every condition were plated. Dishes containing 30-300 colonies were used in the calculation and all conditions were done in duplicate.

cytidine deaminase = target: T2, cytidine deaminase (Mus musculus, UniProt P56389); experiment: Inhibition of tissue cytidine deaminase in mice bearing mammary adenocarcinoma-755 (FIG. 6); assay type: in vivo, BD2F1 mice; conditions: H4U 25 mg/kg or deoxytetrahydrouridine 100 mg/kg i.p.; 60 min
T2 construct: from tissue; host or cells: Lewis lung carcinoma, liver, spleen, intestine, bone marrow, kidney, skeletal muscle and serum of BD2F1 mice
Procedure: as §4

dCMP deaminase = target: T3, dCMP deaminase (Mus musculus, UniProt Q8K2D6); experiment: Inhibition of dCMP deaminase after H4U in mice bearing Lewis lung carcinoma; assay type: in vivo, BD2F1 mice; conditions: for % of inhibition of dCMP deaminase of tumor: 30 min
T3 construct: deaminase activity of tumor, serum and other tissues assayed 30 min after H4U; from tissue; host or cells: tumor (Lewis lung carcinoma), serum and other tissues of BD2F1 mice
T3 sequence (Q8K2D6 1-178): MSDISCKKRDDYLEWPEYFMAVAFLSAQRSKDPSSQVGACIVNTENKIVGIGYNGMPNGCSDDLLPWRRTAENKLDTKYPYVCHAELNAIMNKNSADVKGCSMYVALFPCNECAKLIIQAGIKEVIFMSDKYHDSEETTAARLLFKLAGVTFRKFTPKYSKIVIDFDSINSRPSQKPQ
Procedure: dCMP Deaminase Activity: The crude enzyme extract was prepared as described in A. The reaction was carried out in 60 mM Tris HCl, pH 8.0, and 50 μm dCTP, 2.5 mM MgCl2, 30 mM NaF, and 80% H2O to which dCMP (^3H labeled) was added to a final concentration of 2 mM; 20 μl of enzyme extract was added to initiate the reaction giving a total volume of […]. […] A control lacking enzyme was included with each determination. The reaction was terminated as described above in at 0, 30 and 45 minutes and denatured protein was removed by centrifugation as described above. To 10 μl of the supernatant, 6 μl of a 0.03M solution of the carrier nucleotides, dCMP and dUMP were added so that the reactants can be visualized under a UV lamp. Chromatographic isolation of the products was carried out in 2 different solvent systems: A) Baker DEAE Cellulose TLC sheets in 0.01N HCl for 35 min. […] Each appropriate area of the thin layer sheets (where dCMP and dUMP were separated), were cut into small pieces and placed in separate vials and extracted with 1N HCl (1 ml) for 30 minutes. Scintillation cocktail was added (5 ml) to the vials which were vortexed prior to counting. The specific activity was expressed as nmoles/min/mg protein.

Lewis lung carcinoma = experiment: Mean day of death (T/C), Lewis lung carcinoma in mice; assay type: in vivo, BD2F1 mice
Procedure: ; The efficacy of the drug, F3methyldC followed the pattern of Selectivity. The mean day of death (Tumor/Control) was 1.3, 1.6, 1.8 and 1.4 for 10, 25, 50 and 75 mg/kg H4U, respectively. […].

[4] = competition studies, human tumor cell extracts

deoxycytidine kinase (dCK), sequence (P27707 whole entry): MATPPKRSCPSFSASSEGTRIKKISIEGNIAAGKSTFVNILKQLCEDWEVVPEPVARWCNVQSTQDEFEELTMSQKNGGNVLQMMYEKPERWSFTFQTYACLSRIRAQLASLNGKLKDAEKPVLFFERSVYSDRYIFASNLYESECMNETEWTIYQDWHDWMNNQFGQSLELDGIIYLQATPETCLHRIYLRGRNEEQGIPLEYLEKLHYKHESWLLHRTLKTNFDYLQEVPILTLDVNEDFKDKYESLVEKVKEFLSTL
T1 sequence (P32320 whole entry): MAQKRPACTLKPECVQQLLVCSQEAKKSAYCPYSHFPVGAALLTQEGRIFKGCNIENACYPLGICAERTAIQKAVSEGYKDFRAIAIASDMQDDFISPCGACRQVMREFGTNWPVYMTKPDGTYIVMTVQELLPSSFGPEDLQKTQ
T2 sequence (P56389 whole entry): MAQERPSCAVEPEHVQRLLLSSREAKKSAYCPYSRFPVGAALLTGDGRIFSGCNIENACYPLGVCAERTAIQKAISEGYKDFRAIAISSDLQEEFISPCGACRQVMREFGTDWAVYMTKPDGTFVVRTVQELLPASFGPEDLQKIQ

## O=c1[nH]c(=O)n([C@@H]2O[C@H](CO)[C@@H](O)[C@H]2O)cc1Cl [5-Chlorouridine]
PC-3 cells [1]; PC-3 cells
  radiosensitization of PC-3 cells (in words): effective radiosensitizer
T24 cells
  radiosensitization of T24 cells (in words): effective radiosensitizer
T24 cells; listed as Chlorouridine
  radiosensitization of T24 cells (in words): compared very favorably with the other established Radiosensitizers
uridine/cytidine kinase
  substrate for U/C kinase of T24 cells (in words): moderate substrates
uridine/cytidine kinase; competitor 100 μM, substrate 3H-Cytidine 8.3 μM
  % Inhibitation (U/C kinase): 8%
uridine/cytidine kinase; competitor 100 μM, substrate 3H-Uridine 16.7 μM
  % Inhibitation (U/C kinase): 11%
uridine/cytidine kinase; competitor 250 μM, substrate 3H-Cytidine 8.3 μM
  % Inhibitation (U/C kinase): 21%
uridine/cytidine kinase; competitor 250 μM, substrate 3H-Uridine 16.7 μM
  % Inhibitation (U/C kinase): 22%
uridine/cytidine kinase; competitor 500 μM, substrate 3H-Cytidine 8.3 μM
  % Inhibitation (U/C kinase): 32%
uridine/cytidine kinase; competitor 500 μM, substrate 3H-Uridine 16.7 μM
  % Inhibitation (U/C kinase): 24%
uridine/cytidine kinase; competitor 750 μM, substrate 3H-Cytidine 8.3 μM
  % Inhibitation (U/C kinase): 39%
uridine/cytidine kinase; competitor 750 μM, substrate 3H-Uridine 16.7 μM
  % Inhibitation (U/C kinase): 32%

## Nc1nc(=O)n([C@H]2C[C@H](O)[C@@H](CO)O2)cc1I [5-IdC, 5-Iodo-2′-deoxycytidine]
Cytidine deaminase (CD); [4]
  substrate for cytidine deaminase (in words): good substrates
Cytidine deaminase (CD); competitor 250 μM, substrate 3H-Deoxycytidine 25 μM, ratio 10, PC-3 extracts
  inhibition at 250 µM: 60%
[2]; [4]
  substrate for deoxycytidine kinase (in words): very poor substrates
[2]; read-out: % Inhibition (dCK)
  inhibition at 250 µM: 0%
PC-3 cells [1]; cells in culture
  effect of thymidine on radiosensitization (in words): antagonized by thymidine
PC-3 cells [1]; cells in culture, listed as 5-Iododeoxycytidine
  effect of tetrahydrouridine (H4U) on radiosensitization (in words): reversal by H4U
PC-3 cells [1]; cells in culture, listed as IdC
  effect of tetrahydrouridine (H4U) on radiosensitization (in words): greater radiosensitization than IdC alone
PC-3 cells [3]
  effect of tetrahydrouridine (H4U) on cytotoxicity / viability (in words): antagonized by Tetrahydrouridine
  effect of thymidine on cytotoxicity (in words): antagonized by thymidine
PC-3 cells [3]; human, 72 h
  effect of tetrahydrouridine (H4U) on cytotoxicity / viability (in words): reversal by H4U
PC-3 cells [3]; nucleoside 5 μM, H4U 0 μM
  % S: 15%
PC-3 cells [3]; nucleoside 5 μM, H4U 5 μM
  % S: 100%
PC-3 cells [3]; nucleoside 5 μM, H4U 100 μM
  % S: 97%
PC-3 cells [3]; nucleoside 5 μM, H4U 1500 μM
  % S: 100%
PC-3 cells [3]; nucleoside 10 μM, H4U 5 μM
  % S: 53%
PC-3 cells [3]; nucleoside 10 μM, H4U 100 μM
  % S: 73%
PC-3 cells [3]; nucleoside 10 μM, H4U 1500 μM
  % S: 89%
PC-3 cells [3]; nucleoside 20 μM, H4U 5 μM
  % S: 30%
PC-3 cells [3]; nucleoside 20 μM, H4U 100 μM
  % S: 65%
PC-3 cells [3]; nucleoside 20 μM, H4U 1500 μM
  % S: 61%

## O=C1NC(O)CCN1[C@H]1C[C@H](O)[C@@H](CO)O1 (stereo partly drawn) [Deoxytetrahydrouridine]
Cytidine deaminase
  selectivity of inhibition: tumor CD vs CD of normal tissues (in words): did not display a selective inhibition
dCMP deaminase; mouse, in vivo
  selective inhibition of dCMP deaminase of normal tissue (in words): not selectively inhibited

## O=C1NC(O)CCN1[C@@H]1O[C@H](CO)[C@@H](O)[C@H]1O (stereo partly drawn) [Tetrahydrouridine]
PC-3 cells [3]; no nucleoside, H4U 100 μM alone
  % S: 100%
dCMP deaminase; H4U 10 mg/kg, footnote: less than 5% enzyme inhibition
  % of inhibition of dCMP deaminase of tumor: 0^d %
dCMP deaminase; H4U 25 mg/kg
  % of inhibition of dCMP deaminase of tumor: 0%
dCMP deaminase; H4U 50 mg/kg
  % of inhibition of dCMP deaminase of tumor: 0%
dCMP deaminase; H4U 75 mg/kg
  % of inhibition of dCMP deaminase of tumor: 0%
uridine/cytidine kinase; competitor 1500 μM, substrate 3H-Cytidine 8.3 μM
  % Inhibitation (U/C kinase): 1.5%
uridine/cytidine kinase; competitor 1500 μM, substrate 3H-Uridine 16.7 μM
  % Inhibitation (U/C kinase): 1.7%
Lewis lung carcinoma; H4U 10 mg/kg with F3methyldC
  MDD T/C (mean day of death): 1.25
Lewis lung carcinoma; H4U 25 mg/kg with F3methyldC, mean ± SE
  MDD T/C (mean day of death): 1.63 ± 0.07^e
Lewis lung carcinoma; H4U 50 mg/kg with F3methyldC, mean ± SE
  MDD T/C (mean day of death): 1.78 ± 0.06
Lewis lung carcinoma; H4U 75 mg/kg with F3methyldC
  MDD T/C (mean day of death): 1.44
